According to patent US10441555B2, “Pharmaceutical composition” (Olatec Therapeutics LLC, priority 2012, dated 2019):
Counter-ions that a name gives are not always drawn.

Legend:
[1] = tested on: arachidonic acid-induced ear swelling; assay: topical arachidonic acid-induced ear swelling model in mice; assay type: in vivo; conditions: male ICR mice, topical application 30 min before and 15 min after arachidonic acid; measured at 60 minutes; test compounds 375 mM, indomethacin 14 mM; n=10
Experimental: The test compounds, indomethacin (positive control), and vehicle were evaluated for anti-inflammatory activity in a topical arachidonic acid-induced ear swelling model in mice. Male ICR mice weighing 22±2 g were used and randomly divided; each group had 10 mice. Arachidonic Acid (0.5 mg in 20 μl of acetone:ethanol/1:1) was applied topically to the anterior and posterior surfaces of the right ear of each mice. Test substances and vehicle, as listed in Table 1 were similarly applied 30 min before and 15 min after arachidonic acid application. The thickness of the right ear and the left ear was measured and the difference calculated as an indication of the inflammation in the right ear. Ear swelling was measured by a Dyer model micrometer gauge at 60 and 90 minutes after arachidonic acid application as an index of inflammation. Percent inhibition was calculated according to the formula: Ic−It/Ic×100, where Ic and It refers to increase of ear thickness (mm) in control and treated mice, respectively. ANOVA and Dunnett's test were employed to ascertain significant difference between vehicle control and treated groups. Significance is set at P<0.05 level.

CS(=O)(=O)CCCN (as salt: hydrochloride) [3-(methylsulfonyl)propylamine]
melting point: 146.9 to 147.4 °C

CS(=O)(=O)CCC(N)=O [3-(methylsulfonyl)propionamide]
% Inhibition of ear swelling [1]: 30%

CS(=O)(=O)CCCN [3-(methylsulfonyl)propylamine]
% Inhibition of ear swelling [1]: 42%

COc1ccc2c(c1)c(CC(=O)O)c(C)n2C(=O)c1ccc(Cl)cc1 [Indomethacin, indomethacin, reference compound]
% Inhibition of ear swelling [1]: 54%
